Here are results for four molecules from patent US3977944A, “Enzyme-kinetic determination of the concentration of a substrate” (Eppendorf Geratebau Netheler & Hinz GmbH, priority 1973, dated 1976).

The target in test [1] is T1, uricase (Sus scrofa, UniProt P16164).
T1 sequence (P16164 2-304 limits assumed): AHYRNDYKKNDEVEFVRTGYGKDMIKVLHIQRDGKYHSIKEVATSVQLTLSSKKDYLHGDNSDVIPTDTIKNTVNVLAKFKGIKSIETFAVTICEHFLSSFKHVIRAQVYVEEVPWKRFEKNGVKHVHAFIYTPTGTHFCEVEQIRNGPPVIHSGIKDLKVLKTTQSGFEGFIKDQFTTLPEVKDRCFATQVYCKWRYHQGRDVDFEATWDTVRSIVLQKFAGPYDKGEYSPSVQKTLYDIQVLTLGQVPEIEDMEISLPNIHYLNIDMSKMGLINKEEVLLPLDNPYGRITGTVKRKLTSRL
Description: Kinetic uric acid determination with uricase, average inhibition (Table 4). It is filed as biochemical. The text has this: (§1) The exclusion of the interference of foreign inhibitors that can be achieved by the invention is illustrated by the measurements obtained for two different enzymes and two different inhibitors each, which are listed in the following two tables.

Test [2] concerns the target T2, glucose dehydrogenase (Priestia megaterium, UniProt P07999). Description: Kinetic glucose determination with glucose-dehydrogenase, Example 5 (95 mU enzyme). Format: biochemical. The text has this:
(§2) The following test mixture was used:
90 mmoles phosphate buffer pH = 7.6
40 mmoles sulfosalicylic acid
95 mU glucose dehydrogenase

Test [3] concerns the target T2, glucose dehydrogenase. Conditions: Lineweaver-Burk diagram, FIG. 1; 330 and 500 mmoles KSCN per liter of test solution.
Description: The reaction was started by the admixture of 20 μl of 200 mmoles/l NAD^+, and recording was begun 10 seconds later: paper feed 5 cm/min, spread 20 cm for E = 0 - 1.
For the determination of the angle α with the axis of time the virtually linear initial area of the recording was evaluated; for the determination of the type of inhibitor, the reciprocals of tangent α (identical with the initial rate, for practical purposes) were plotted as ordinates and the reciprocals of the millimolar glucose concentrations used in the test were plotted as abscissae (Lineweaver-Burk diagram).
20 μl of specimen was incubated in the cell at 25°C with 500 μl of stabilized buffer-enzyme-inhibitor mixture and the reaction was started by the admixture of 20 μl NAD^+ (150 mg/ml H2 O). 20 seconds after the start of the reaction, recording was performed at a paper feed of 5 cm/min at Hg 366 nm, and the layer thickness 1.00 cm, and the angle α was determined 20 seconds after the start of the reaction in each case.
Test [4] concerns the target uricase (prepared from swine liver) (Sus scrofa, UniProt P16164).
Description: Recording is started 20 seconds after initiation of the reaction: paper speed 2 cm/min, spread 20 cm for E=0-1. With an angle measuring means, the angle α formed with the time axis is measured at the beginning of each recording. The reciprocals of tan α are plotted as ordinates against the corresponding reciprocal uric acid concentrations (Lineweaver-Burk diagram). The calibration straight line is drawn through the points obtained with and without the addition of potassium thiocyanate.
For the determination of the apparent Michaelis constant, the reciprocals of the tangent α are plotted as ordinates, and the reciprocal molar substrate concentrations in the test mixture as abscissae. The apparent Michaelis constant is found as a negative reciprocal of the abscissae intersections of the straight lines of regression (insertion of suitable small values for 1/cS followed by graphic evaluation).
A further test concerns the target GlucDH (Priestia megaterium, UniProt P07999). As to the kind of experiment: Kinetic glucose determination with GlucDH, average inhibition (Table 3). Format: biochemical.
Source text: as §1

Test [5] deals with T1, uricase. As to the kind of experiment: Inhibition of Uricase, Example 6. It is filed as biochemical.
Source text: as §2
96 mmoles borate buffer pH = 9.5
114 - 7.6 μmoles uric acid

For test [6], the target named is T2, glucose dehydrogenase. As to the kind of experiment: Kinetic glucose determination with glucose-dehydrogenase, Example 4 (1.8 U enzyme). It is filed as biochemical.
Source text: as §2
0.12 mole phosphate buffer pH = 7.6
40 millimoles sulfosalicylic acid
0.86 millimole - 2.59 millimoles glucose
1.8 U glucose-dehydrogenase

Test [7] deals with uricase obtained from swine liver (Sus scrofa, UniProt P16164). Particulars: read-out: Michaelis constant of uricase, Tiffany et al., Anal. Chem. 45, 1716-23 (1973); cited from earlier work.
[8] abbreviates: 38.5 mmoles KSCN, glucose [S] 0.86 mmoles.
The mark [9] stands for this setting: 38.5 mmoles KSCN, glucose [S] 1.29 mmoles.
The mark [10] stands for this setting: 38.5 mmoles KSCN, glucose [S] 1.72 mmoles.
Where [11] appears, read: 38.5 mmoles KSCN, glucose [S] 2.59 mmoles.
The mark [12] stands for this setting: 38.5 mmoles KSCN, glucose [S] 3.45 mmoles.
Where [13] appears, read: 0.31 mole KSCN, glucose [S] 0.86 mmoles.
Setting [14] is: 0.31 mole KSCN, glucose [S] 1.29 mmoles.
[15] abbreviates: 0.31 mole KSCN, glucose [S] 1.72 mmoles.
[16] abbreviates: 0.31 mole KSCN, glucose [S] 2.59 mmoles.
Where [17] appears, read: 0.02 mmole xanthine, [S] 7.6 μmole.
The mark [18] stands for this setting: 0.02 mmole xanthine, [S] 38 μmole.
The mark [19] stands for this setting: 0.02 mmole xanthine, [S] 114 μmole.
Setting [20] is: 14 nmoles phloretin, glucose [S] 0.86 mmoles.
Setting [21] is: 14 nmoles phloretin, glucose [S] 1.29 mmoles.
Setting [22] is: 14 nmoles phloretin, glucose [S] 1.72 mmoles.
[23] abbreviates: 14 nmoles phloretin, glucose [S] 2.59 mmoles.
Setting [24] is: 14 nmoles phloretin, glucose [S] 3.45 mmoles.
Setting [25] is: 1.4 nmoles phloretin, glucose [S] 0.86 mmoles.
Where [26] appears, read: 1.4 nmoles phloretin, glucose [S] 1.29 mmoles.
[27] abbreviates: 1.4 nmoles phloretin, glucose [S] 1.72 mmoles.
Setting [28] is: 1.4 nmoles phloretin, glucose [S] 2.59 mmoles.

T2 sequence (P07999 whole entry): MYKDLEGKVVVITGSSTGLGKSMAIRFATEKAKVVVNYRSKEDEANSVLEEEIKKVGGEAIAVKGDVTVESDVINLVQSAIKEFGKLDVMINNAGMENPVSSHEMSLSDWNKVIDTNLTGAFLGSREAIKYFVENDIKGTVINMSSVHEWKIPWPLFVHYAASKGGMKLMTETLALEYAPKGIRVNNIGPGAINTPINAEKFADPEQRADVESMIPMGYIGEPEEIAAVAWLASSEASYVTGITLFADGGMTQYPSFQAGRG
GlucDH, sequence (P07999 whole entry): as above

Turning to `N#CS` [KSCN, Potassium thiocyanate], the “Average inhibition in %” value at uricase [1] (KSCN 10 millimoles) is 17%; at uricase [1] (KSCN 40 millimoles) it was 41%; on uricase [1] (KSCN 500 millimoles), 82%; on GlucDH (KSCN 38.5 millimoles), 17%; at GlucDH (KSCN 310 millimoles) it was 78%. In addition, the “% inh.” value at glucose dehydrogenase [2] (setting [8]) came to 17%; at glucose dehydrogenase [2] (setting [9]), 18.8%; on glucose dehydrogenase [2] (setting [10]) it was 21.69%; on glucose dehydrogenase [2] (setting [11]), 8%; on glucose dehydrogenase [2] (setting [12]), 17%; on uricase [5] (0.5 mole KSCN, [S] 7.6 μmole), 86%. Further, the “% inh.” value is 81% on uricase [5] (0.5 mole KSCN, [S] 38 μmole); 73% at uricase [5] (0.5 mole KSCN, [S] 114 μmole); 85.5% on glucose dehydrogenase [6] (setting [13]); 80.3% at glucose dehydrogenase [6] (setting [14]); 80.6% on glucose dehydrogenase [6] (setting [15]); 77.5% on glucose dehydrogenase [6] (setting [16]). Further, the ΔE/min is on record as 28.0 on glucose dehydrogenase [2] (setting [8]); 40.3 on glucose dehydrogenase [2] (setting [9]); 49.7 at glucose dehydrogenase [2] (setting [10]); 72.3 on glucose dehydrogenase [2] (setting [11]); 90 at glucose dehydrogenase [2] (setting [12]); 3.3 at uricase [5] (0.5 mole KSCN, [S] 7.6 μmole). Further, the ΔE/min at uricase [5] (0.5 mole KSCN, [S] 38 μmole) is reported as 16.3; at uricase [5] (0.5 mole KSCN, [S] 114 μmole) it was 46; on glucose dehydrogenase [6] (setting [13]) it was 4.5; at glucose dehydrogenase [6] (setting [14]), 8.0; on glucose dehydrogenase [6] (setting [15]) it was 10.5; on glucose dehydrogenase [6] (setting [16]) it was 17. For the same molecule, the type of inhibitor result at glucose dehydrogenase [3] is given as “competitive type of inhibitor”; in test [4] (Lineweaver-Burk plot, same ordinate intersection), “competitive inhibitor”. For the same molecule, in test [4] (687 mmoles per liter of test solution, uric acid as substrate, 25°C), the “apparent Michaelis constant” value was 1 mmol/L.
As to `O=c1[nH]c(=O)c2[nH]cnc2[nH]1` [Xanthine, xanthine], the entries for the “Average inhibition in %” value at uricase [1] (Xanthine 20 micromoles), on uricase [1] (Xanthine 40 micromoles) and at uricase [1] (Xanthine 80 micromoles) were 34%, 60% and 76%, respectively. Also, the “% inh.” value on uricase [5] (setting [17]) is given as 49%; at uricase [5] (setting [18]), 25%; on uricase [5] (setting [19]), 26%. In addition, the figures for the ΔE/min at uricase [5] (setting [17]), at uricase [5] (setting [18]) and at uricase [5] (setting [19]) were 14, 66 and 127, respectively.
Consider `O=c1[nH]c(=O)c2[nH]c(=O)[nH]c2[nH]1` [uric acid], for which, in test [7], the Km is 17 µM.
Regarding `O=C(CCc1ccc(O)cc1)c1c(O)cc(O)cc1O` [Phloretin, phloretin], the “% inh.” value at glucose dehydrogenase [2] (setting [20]) came to 74%; on glucose dehydrogenase [2] (setting [21]) it was 77%; on glucose dehydrogenase [2] (setting [22]), 78%; at glucose dehydrogenase [2] (setting [23]), 76%; on glucose dehydrogenase [2] (setting [24]) it was 75%; at glucose dehydrogenase [6] (setting [25]) it was 22.8%. Further, the “% inh.” value on glucose dehydrogenase [6] (setting [26]) worked out at 26.0%; on glucose dehydrogenase [6] (setting [27]), 15.8%; on glucose dehydrogenase [6] (setting [28]), 17.1%. Besides, the ΔE/min at glucose dehydrogenase [2] (setting [20]) was determined as 8.7; on glucose dehydrogenase [2] (setting [21]) it was 11.3; at glucose dehydrogenase [2] (setting [22]), 14.0; at glucose dehydrogenase [2] (setting [23]) it was 20.3; at glucose dehydrogenase [2] (setting [24]), 26.7; on glucose dehydrogenase [6] (setting [25]), 24.0. For the same molecule, the ΔE/min on glucose dehydrogenase [6] (setting [26]) turned out to be 30.0; on glucose dehydrogenase [6] (setting [27]), 45.5; at glucose dehydrogenase [6] (setting [28]), 62.5. In addition, the results for the “Average inhibition in %” value on GlucDH (Phloretin 1.4 micromoles) and on GlucDH (Phloretin 14 micromoles) were 20% and 76%, respectively.
